Entries after “also recorded” stand apart in the source; their conditions may differ.
Key:
[1] = system: in vivo cancer and cancer stem cell models; details: regardless of anatomic location; cited from earlier work
B78 tumor [2] = experiment: ^131I-NM404 with xRT+IT-IC, single B78 tumor; type: in vivo, mice
Source text: (§1) Using the dosimetry calculations from our preliminary data, we estimated that a dose of 3 μCi of ^131I-NM404, should deliver an equivalent of ˜0.2 Gy to the tumor site, a dose that we hypothesized should not be immunosuppressive and should not prevent lymphocyte-mediated tumor destruction. As noted above, this is the dose we estimated would remain yet to be delivered 28 days after an initial ^131I-NM404 dose of 60 μCi. We thus evaluated groups of mice bearing a single 200 mm^3 B78 tumor. On day 0, all mice got 12 Gy xRT to their tumor, and on days 6-10, all got 50 mcg/d of IT-IC. One group also got 3 μCi of ^131I-NM404 on d-0 (˜0.2 Gy). […] We thus hypothesize that if we use an initial dose of 60 μCi of ^131I-NM404 TRT on day-22, it would effectively block the tolerogenic effect of distant tumors, yet enable xRT on day 0 and IT-IC on days 6-10 (28 d after the TRT) to the first tumor to function as an in situ vaccine, inducing an adaptive response that then eradicates all tumors.
Using the data summarized in Examples 7 and 8, a study was done in mice bearing 2 separate B78 tumors. Mice received the estimated required systemic ^131I-NM404 dose followed by xRT and local immunotherapy to the in situ vaccine site. […]

B78 tumors = experiment: low dose ^131I-NM404 TRT: blood counts and tumor infiltrating T cells; type: in vivo, C57BL/6 mice
Source text: (§2) In order to then determine if a ˜2 Gy equivalent dose of ^131I-NM404 would have the desired effects against intratumor lymphoid cells (particularly Tregs), 2 separate approaches have been pursued.
A second approach involved treating mice with B78 tumors with these same doses of ^131I-NM404. […] This observation again supports our hypothesis that it will be feasible to use TRT to overcome Treg-mediated CIT in order to rescue an in situ vaccine effect in animals bearing multiple tumors.
In most clinical scenarios, it is not feasible to deliver external beam, even low dose, to all tumor sites without eliciting marked bone marrow depletion and leukopenia that would result in immunosuppression. Here we tested whether TRT could be administered systemically to specifically deplete tumor infiltrating suppressive immune cells (Tregs), without triggering systemic immune cell depletion and leukopenia. Dosimetry studies in this B78 melanoma tumor model were performed using positron-emitting ^124I-NM404 confirm tumor-selective uptake of NM404 (FIG. 12A). C57BL/6 mice bearing B78 tumors were treated with 60 μCi ^131I-NM404. This activity approximates the amount of ^131I-NM404 necessary to deliver ˜2 Gy TRT to a B78 tumor. Peripheral blood and tumor samples were collected in untreated control mice (C) and at 8 day intervals (T1=d8, T2=d16, T3=d24, T4=d32) thereafter.

B78 tumor [3] = experiment: Monte Carlo dosimetry from serial ^124I-NM404 PET/CT; type: in vivo, C57BL/6 mice
Source text: (§3) ^131I-NM404 has shown selective uptake in vitro in >95% of tumor lines (human and mouse), with poor uptake by non-malignant cells, and with similar tumor specificity seen in vivo. This includes selective uptake in vivo with the B78 tumor (FIG. 5). In our preliminary dosimetry study, we gave ^124I-NM404 to C57BL/6 mice and characterized the time course of TRT exposure by serial PET/CT imaging (as in FIG. 5). […] After those four weeks, the remaining TRT dose to the B78 tumor would be less than 0.25 Gy. We will replicate the data we obtained in our 2-tumor model using xRT (FIG. 3), but use the lowest possible dose of targeted ^131I-NM404 TRT to enable effective elimination of tumor-induced tolerance at all sites of distant disease. However, unlike xRT, which delivers all dose in minutes and is then done, TRT deposits dose over time, depending upon both the biological and physical half-life of the targeted isotope (8 day t½ for ^131I). We want an initial TRT effect at the distant tumor sites to eradicate immune tolerance; however we want the immunosuppressive TRT effect to then be minimal when we give the IT-IC to induce ADCC and the in situ vaccine anti-tumor effects. This is essential to allow full tumor destruction at all sites.
as §1
Based on the preliminary data described above in Examples 1-4, studies have been done to move these concepts into in vivo testing using TRT. […] This was done in order to estimate the amount of ^131I-NM404 that would be needed to approximate ˜2 Gy of xRT.
In most clinical scenarios, it is not feasible to deliver external beam, even low dose, to all tumor sites without eliciting marked bone marrow depletion and leukopenia that would result in immunosuppression. […]

two B78 tumors = experiment: ^131I-NM404 + xRT + IT-IC in mice bearing two B78 tumors; type: in vivo, C57BL/6 mice; details: 60 μCi day 1, 12 Gy xRT to primary day 8, IT-IC days 13-17
Source text: Using the data summarized in Examples 7 and 8, a study was done in mice bearing 2 separate B78 tumors. Mice received the estimated required systemic ^131I-NM404 dose followed by xRT and local immunotherapy to the in situ vaccine site. […] Further testing, and modification of some of the experimental variables, is underway in order to try to maximize the desired effect of blocking CIT without suppressing the in situ vaccine effect. More details regarding these experiments are disclosed in Example 10 below.
Given the capacity of low dose ^131I-NM404 TRT to deplete tumor-infiltrating Tregs without rendering a mouse leukopenic, we tested whether low dose ^131I-NM404 might effectively overcome concomitant immune tolerance. C57BL/6 mice bearing two B78 tumors were treated with 60-μCi ^131I-NM404 on day 1 (NM404), as indicated. After one half-life (day 8), animals received 12 Gy xRT or no xRT to the primary tumor (in situ vaccine site). Control mice receiving no ^131I-NM404 were treated to the secondary tumor as indicated (0, 2, or 12 Gy). Mice received daily IT injections of IC to the primary tumor (in situ vaccine site), as indicated, on days 13-17.

B78 tumor tissue = experiment: RT-PCR gene expression of immune signatures in tumor tissue after TRT; type: in vivo, mice; details: TRT alone; pretreatment and 8 d intervals
Description: Finally, to characterizing the immunological effects of TRT on the immune cells within tumors, we have treated B78 bearing mice with ^131I-NM404 and collected tumor tissue at pretreatment and at half-life (8 d) intervals thereafter. These tissues were then analyzed by RT-PCR for gene expression of a panel of immune signatures.

[4] = system: tumor lines (human and mouse); experiment: selective uptake in vitro in tumor lines; type: cell-based; details: poor uptake by non-malignant cells
Source text: as §3

[5] = system: radiosensitive lymphoma tumor; experiment: ^131I-NM404 in mice bearing a radiosensitive lymphoma tumor; type: in vivo; details: ~2 Gy equivalent dose
Source text: as §2

Tregs = experiment: Treg depletion by diphtheria toxin in DEREG mice with primary and secondary B78 tumors treated with xRT+IT-IC; type: in vivo; details: IP diphtheria toxin vs PBS, with xRT+IT-IC to primary tumor
B78 melanoma = experiment: ^124I-NM404 PET/CT imaging; type: in vivo, mouse; details: IV; ~200 mm^3 B78 tumor; image at 71 h
Source text: FIG. 5 is an image showing selective uptake of ^124I-NM404 by B78 melanoma. A mouse bearing a ˜200 mm^3 B78 tumor received IV ^124I-NM404 and had serial PET/CT scans done.
as §3, with “This is essential to allow full tumor destruction at all sites.” left out

[6] = 3 and 4 half-life time points, vs untreated baseline and 2nd half-life

## C[N+](C)(C)CCOP(=O)([O-])OCCCCCCCCCCCCCCCCCCc1ccc(I)cc1 [NM404, 18-(p-iodophenyl)octadecyl phosphocholine]
[1]
  tumor uptake / targeting across in vivo models: near universal tumor uptake in all but three of over 70 in vivo models

## C[N+](C)(C)CCOP(=O)([O-])OCCCCCCCCCCCCCCCCCCc1ccc([131I])cc1 [^131I-NM404]
B78 tumor [2]; 3 μCi on d-0 (~0.2 Gy), 12 Gy xRT day 0, IT-IC days 6-10
  tumor eradication by xRT+IT-IC with vs without TRT: same degree of tumor eradication; also recorded: equally effective
B78 tumor [2]; estimated required systemic TRT dose, mice with one tumor
  local in situ vaccine effect: did not appear to interfere with the local in situ vaccine effect
B78 tumors; 2 half-life time point
  intratumor effector CD8+ T cells: decrease in intratumor effector CD8+ T cells
B78 tumors; 2 half-lifes after TRT
  intratumor FoxP3+ Tregs: decrease in intratumor FoxP3+ Tregs
B78 tumors; [6]
  intratumor CD8+ effector T cells: increase in intratumor CD8+ effector T cells
  intratumor Tregs: further decline in the levels of intratumor Tregs
B78 tumors; 60 μCi, d8-d32
  level of tumor infiltrating CD8+ effector T cells: did not significantly affect the level of tumor infiltrating CD8+ effector T cells
  tumor infiltrating FoxP3+ Tregs: significantly depleted
B78 tumors; 60 μCi, peripheral blood d8-d32
  systemic leukopenia: did not result in any significant systemic leukopenia
B78 tumors; ~2 Gy equivalent dose
  circulating lymphoid cells (peripheral complete blood counts): did not cause either substantial shrinkage/slowing of the B78 tumor or any evident depletion of circulating lymphoid cells
B78 tumors; ~2 Gy equivalent dose, TRT alone
  B78 tumor growth: did not cause either substantial shrinkage/slowing of the B78 tumor
B78 tumors; ~2 Gy equivalent dose, half-life (8 d) intervals
  systemic lymphopenia (peripheral complete blood count): no systemic lymphopenia at any time point
B78 tumor [3]; 3 μCi
  dose delivered to the tumor site: ~0.2 Gy
B78 tumor [3]; after four weeks, initial 60 μCi
  remaining TRT dose to the B78 tumor: less than 0.25 Gy
B78 tumor [3]; mouse, in vivo
  activity necessary to deliver ~2 Gy TRT to a B78 tumor: ~60 μCi
B78 tumor [3]; over a four week period of decay
  activity needed to deliver ~3 Gy to an established B78 tumor: ~60 μCi
Two B78 tumors
  concomitant immune tolerance (CIT) / primary and secondary tumor response: did appear to attenuate CIT; also recorded: effectively overcomes concomitant immune tolerance and rescues the systemic anti-tumor effect of in situ vaccination
B78 tumor tissue
  gene expression of immune signatures: striking changes in expression of tumor cell markers of immunsusceptibility and in genes normally expressed only by immune cells
[1]
  tumor uptake / targeting across in vivo models: nearly universal tumor targeting properties in over 60 in vivo cancer and cancer stem cell models
[4]
  tumor lines with selective uptake in vitro: > 95%
[5]
  lymphoid tumor response: potent lymphoid tumor shrinkage/dose-dependent inhibition

## diphtheria toxin
Tregs
  primary and secondary tumor response: improved primary (FIG. 9B) and secondary (FIG. 9C) tumor response

## C[N+](C)(C)CCOP(=O)([O-])OCCCCCCCCCCCCCCCCCCc1ccc([124I])cc1 [^124I-NM404]
B78 melanoma
  tumor uptake on PET/CT: Excellent tumor uptake; also recorded: selective uptake by the tumor with some residual background uptake by the heart and liver

Source: patent US11633506B2, “Using targeted radiotherapy (TRT) to drive anti-tumor immune response to immunotherapies” (Wisconsin Alumni Research Foundation, priority 2016, dated 2023)
